Like-named read-outs stand apart in the source and are kept apart here.
Legend:
Assay type in all cases: cell-based
H358 cells [1] = experiment: cells
Experimental: The cytotoxicity of HGPF, cyclic peptide (CLYDVAGSDKYCGP), FN1-8, and FN1-8 methylamino derivative (FN1-8-CH2-NH2) was detected through CCK8 experiment. The cyclic peptide (CLYDVAGSDKYCGP) has a sequence shown in SEQ ID NO: 4, and it is Cys-Leu-Tyr-Asp-Val-Ala-Gly-Ser-Asp Lys-Tyr-Cys-Gly-Pro. The experimental steps are as follows:
8.1 Plate laying: Inoculate H358 cells in logarithmic growth phase into a 96-well plate (100 μl/well), with 6 replicate wells per group and a cell count of 5×10^3 cells per well, then place and culture in a 37° C., 5% CO2 incubator for 12 hours.
8.2 Use different concentrations of HGPF, HGPF+FAPα, cyclic peptides, FN1-8, and FN1-8-CH2-NH2 to treat with the experimental group. First, prepare the above drugs into a 100 mM mother solution, and then set […], namely 100 μM, 50 μM, 25 μM, 12.5 μM, 6.25 μM, 3.125 μM, 1.5625 μM, and 0.78125 μM, wherein the HGPF+FAPα group was the group added FAPα (1 μM) after adding the above concentrations of HGPF to simulate the tumor tissue microenvironment.
8.3 After 24 hours, wash the cells twice with PBS, then add 100 μL of pre-mixed CCK8 solution (culture medium:CCK8 working solution=9:1) to each well, and then continue to culture in a 37° C., 5% CO2 incubator for 2 hours.
8.4 Use a microplate reader to measure the absorbance D (2) of each well at a wavelength of 450 nm. Analyze the D (2) values of the blank group, the control group, and the experimental group to determine cellular activity. The cell survival rate reflects the cytotoxicity of drugs. The groups are as follows: • Experimental group (culture medium containing cells, CCK-8, test drug) • Control group (culture medium containing cells, CCK-8, without test drug) • Blank group (culture medium without cells and test substance, containing CCK-8)

[2] = test system: lung cancer cell line H358 (carrying KRAS G12C mutation); experiment: Uptake of HGP-FITC by lung cancer cells, flow cytometry; details: different concentrations, 8 hours
Experimental: 6.2 Incubate lung cancer cell line H358 (carrying KRAS G12C mutation) with different concentrations of HGP-FITC, and detect by flow cytometry after 8 hours.

KRAS G12C = target: T1, KRAS G12C (Homo sapiens, UniProt P01116, G12C); experiment: Specificity of HGP-FITC targeting KRAS G12C (pre-blocking, flow cytometry); details: then 25 μM HGP-FITC, 8 hours
T1 construct: endogenous in cells; host or cells: H358 lung cancer cells
T1 sequence (P01116 1-188 isoform P01116-2 G12C): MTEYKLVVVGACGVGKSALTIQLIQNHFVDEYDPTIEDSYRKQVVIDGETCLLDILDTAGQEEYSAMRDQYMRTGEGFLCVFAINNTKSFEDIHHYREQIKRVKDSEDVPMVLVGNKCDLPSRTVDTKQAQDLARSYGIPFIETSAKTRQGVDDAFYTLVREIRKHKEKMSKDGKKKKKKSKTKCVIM
Experimental: 6.3 Based on the flow cytometry results, select a concentration of 25 μM for subsequent experiments. The lung cancer cell line H358 (carrying KRAS G12C mutation) was first blocked with 1:1000 KRAS antibody or 10 μM Sotorasib (KRAS G12C inhibitor) for 24 hours, and then incubated with 25 μM HGP-FITC. Fluorescence uptake was detected by flow cytometry after 8 hours.

H358 cells [3] = experiment: Scratch test, proliferation and migration of lung cancer cells; details: H358, 10 μM, 24 hours
Experimental: The inhibitory effects of the conjugate HGPF and cyclic peptide (CLYDVAGSDKYCGP) on the proliferation and migration of lung cancer cells were detected by scratch test. The experimental steps are as follows:
9.1 Plate laying: First, mark 3 positioning lines at the bottom of the 6-well plate, then inoculate H358 cells in logarithmic growth phase onto the 6-well plate (2 ml/well), with a cell count of 1×10^6 per well, and then culture in a 37° C., 5% CO2 incubator for 24 hours.
9.2 Marking: Place the plate cover above the 6-well plate, use a 100μ pipettor tip to draw 3 straight lines vertically for each hole; then wash 4 times with PBS to wash away floating cell debris.
9.3 Administration: Replace the culture medium with a medium containing 2% serum, administer 10 μM of the drug to each group, take photos at 0 and 24 hours, observe scratch healing, and analyze with ImageJ software.

## O=C(NCc1ccc(O)cc1)C1C(c2ccccc2)=NN(c2ccccc2)C1c1ccccc1 (stereo not drawn) [FN1-8, reference compound]
H358 cells [1]
  cytotoxicity against lung cancer cells: good cytotoxicity
H358 cells [1]; H358, 24 hours, up to 100 μM
  effect of further increasing the concentration on cell viability: cannot achieve the effect of completely inhibiting cell viability
H358 cells [1]; Homo sapiens, NCI-H358, 24 h
  IC50: 4.34 µM

## NCc1ccc(CNC(=O)C2C(c3ccccc3)=NN(c3ccccc3)C2c2ccccc2)cc1 (stereo not drawn) [FN1-8-CH2-NH2]
H358 cells [1]
  cytotoxicity against lung cancer cells: good cytotoxicity
H358 cells [1]; Homo sapiens, NCI-H358, 100 μM, 24 hours, read-out: inhibition rate on H358 cells
  inhibition at 100 µM: 100%
H358 cells [1]; Homo sapiens, NCI-H358, H358, 24 hours, CCK8, read-out: IC50
  IC50: 4.68 µM

## CC(C)C[C@@H]1NC(=O)[C@@H](N)CSSC[C@@H](C(=O)NCC(=O)N2CCC[C@H]2C(=O)NCCCCC(NC(=S)Nc2ccc3c(c2)C(=O)OC32c3ccc(O)cc3Oc3cc(O)ccc32)C(=O)O)NC(=O)[C@H](Cc2ccc(O)cc2)NC(=O)[C@H](CCCCN)NC(=O)[C@H](CC(=O)O)NC(=O)[C@H](CO)NC(=O)CNC(=O)[C@H](C)NC(=O)[C@H](C(C)C)NC(=O)[C@H](CC(=O)O)NC(=O)[C@H](Cc2ccc(O)cc2)NC1=O (stereo partly drawn) [HGP-FITC]
[2]
  uptake of HGP-FITC by H358 cells: concentration dependent manner
KRAS G12C; 10 μM Sotorasib 24 hours
  uptake of HGP-FITC by H358 cells after pre-block with Sotorasib: significantly reduced
KRAS G12C; 1:1000 KRAS antibody 24 hours
  uptake of HGP-FITC by H358 cells after pre-block with KRAS antibody: significantly reduced

## CC(C)C[C@@H]1NC(=O)[C@@H](N)CSSC[C@@H](C(=O)NCC(=O)N2CCC[C@H]2C(=O)NCc2ccc(CNC(=O)C3C(c4ccccc4)C(c4ccccc4)=NN3c3ccccc3)cc2)NC(=O)[C@H](Cc2ccc(O)cc2)NC(=O)[C@H](CCCCN)NC(=O)[C@H](CC(=O)O)NC(=O)[C@H](CO)NC(=O)CNC(=O)[C@H](C)NC(=O)[C@H](C(C)C)NC(=O)[C@H](CC(=O)O)NC(=O)[C@H](Cc2ccc(O)cc2)NC1=O (stereo partly drawn) [HGPF]
H358 cells [1]
  cytotoxicity against lung cancer cells: weak cytotoxicity
H358 cells [1]; 24 h
  IC50: 3.66 µM
H358 cells [3]; with FAPα
  inhibitory effect on proliferation and migration of tumor cells: significantly inhibited
H358 cells [3]; without FAPα
  inhibitory effect on proliferation and migration of tumor cells: no inhibitory effect

## CC(C)C[C@@H]1NC(=O)[C@@H](N)CSSC[C@@H](C(=O)NCC(=O)N2CCC[C@H]2C(=O)O)NC(=O)[C@H](Cc2ccc(O)cc2)NC(=O)[C@H](CCCCN)NC(=O)[C@H](CC(=O)O)NC(=O)[C@H](CO)NC(=O)CNC(=O)[C@H](C)NC(=O)[C@H](C(C)C)NC(=O)[C@H](CC(=O)O)NC(=O)[C@H](Cc2ccc(O)cc2)NC1=O [cyclic peptide, Cys-Leu-Tyr-Asp-Val-Ala-Gly-Ser-Asp Lys-Tyr-Cys-Gly-Pro]
H358 cells [1]
  cytotoxicity against lung cancer cells: weak cytotoxicity
H358 cells [3]; without FAPα
  inhibitory effect on proliferation and migration of tumor cells: no inhibitory effect

From patent US20250345311A1, “CONJUGATE OF POLYPEPTIDE AND SMALL MOLECULE TARGETING KRAS AND ANTI-CANCER APPLICATION THEREOF” (Guangzhou Medical University, priority 2024, published 2025)
